Values quoted from earlier work in patent publication US20230087473A1, “COMPOSITION OF SUSPOEMULSION FORMULATION OF ANTHELMINTIC DRUGS WITH ESSENTIAL OILS FOR NASO-PULMONARY ADMINISTRATION” (priority 2021, published 2023).

Legend:
Musca Domenstica = settings: nasal irrigation with ivermectin solution, within 15 minutes
SARS-COV-2 = settings: in-vitro study
[1] = in vivo

Molecule	larvae self-expulsed by the patient (Musca Domenstica)	effect on replication of SARS-COV-2 (SARS-COV-2)	bioavailability [1]
Ivermectin	approximately 50 larvae	inhibitory role	–
O=C(Nc1ccc([N+](=O)[O-])cc1Cl)c1cc(Cl)ccc1O [Niclosamide]	–	–	very low bioavailability
